The term inhibition denotes the share of the control response that was lost under treatment.

This is an account of results in patent US20250208149A1, “WEE1 COMPOUND FOR TREATING UTERINE SEROUS CARCINOMA” (Recurium IP Holdings, LLC, priority 2022, published 2025).

Format in all cases: cell-based
The subject of assay [1] is HEC1B endometrial cancer cells. The assay can be described thus: Percent inhibition of cell growth, ZN-c3, LB-100 or ZN-c3+LB-100 after siCTRL or siPPP2R1A (cell titer glow). The following applies: Homo sapiens, HEC-1B, 72 h, read-out: percent inhibition of cell growth. The procedure:
FIG. 21 depicts the percent inhibition of cell growth in HEC1B endometrial cancer cells after treatment with ZN-c3 alone, the PP2A catalytic inhibitor LB-100 alone, or the combination of ZN-c3+LB-100 after siRNA mediated knockdown of PPP2R1A. […] Percent inhibition is calculated using cell titer glow analysis.
(§1) Following observations that both knockdown and knockout of PPP2R1A could sensitize cancer cells to Zn-C3, the effects of pharmacological inhibition of PPP2R1A with the catalytic inhibitor LB-100 were evaluated. Various cancer cell lines were treated with ZN-c3 alone, the PP2A catalytic inhibitor LB-100 alone, or the combination of ZN-c3+LB-100. As in Example 1 and Example 2, the treatment period was 72 hours and percent inhibition was calculated using cell titer glow analysis.
The endometrial cancer cell line HEC1B was also assessed for sensitivity to ZN-c3 alone, LB-100 alone, or the combination of ZN-c3+LB-100 following treatment with siCTRL or siPPP2R1A (FIG. 21).
On the technique in general: Cellular ATP, detected with luciferase, serves as a proxy for viable cell number.

In assay [2] the test system is HEC-59 endometrial cancer cells. The assay is described as above. The conditions noted are these: 72 hours, ZN-c3 300 nM, LB-100 1 μM. The procedure: FIG. 20 depicts the percent inhibition of cell growth in HEC-59 endometrial cancer cells after treatment with ZN-c3 alone, the PP2A catalytic inhibitor LB-100 alone, or the combination of ZN-c3+LB-100 after siRNA mediated knockdown of PPP2R1A. […] Percent inhibition is calculated using cell titer glow analysis.
(§2) Various cancer cell lines were treated with ZN-c3 alone, the PP2A catalytic inhibitor LB-100 alone, or the combination of ZN-c3+LB-100. As in Example 1 and Example 2, the treatment period was 72 hours and percent inhibition was calculated using cell titer glow analysis.
The endometrial cancer cell line HEC-59 was assessed for sensitivity to ZN-c3 alone, LB-100 alone, or the combination of ZN-c3+LB-100 following treatment with siCTRL or siPPP2R1A (FIG. 20).

Assay [3] has the same test system. The assay can be described thus: Percent inhibition of cell growth, ZN-c3, LB-100 or ZN-c3+LB-100 (cell titer glow). The conditions noted are these: HEC-59 (PPP2R1A wild-type), 72 hours; ZN-c3 400 nM, LB-100 1 μM. As for the experimental part:
FIG. 18 depicts the percent inhibition of cell growth in HEC-59 endometrial cancer cells after treatment with ZN-c3 alone, the PP2A catalytic inhibitor LB-100 alone, or the combination of ZN-c3+LB-100. HEC-59 cell line is PPP2R1A wild-type. […] Percent inhibition is calculated using cell titer glow analysis.
as §2
The endometrial cancer cell line HEC-59 was assessed for sensitivity to ZN-c3 alone, LB-100 alone, or the combination of ZN-c3+LB-100 (FIG. 18).

In assay [4] the test system is OV17R ovarian cancer cells. Described as above. The conditions noted are these: 72 h, read-out: percent inhibition of cell growth. As for the experimental part: FIG. 19 depicts the percent inhibition of cell growth in OV17R ovarian cancer cells after treatment with ZN-c3 alone, the PP2A catalytic inhibitor LB-100 alone, or the combination of ZN-c3+LB-100. OV17R has the PPP2R1A missense mutation S256F. Percent inhibition is calculated using cell titer glow analysis.
as §1
The ovarian cancer cell line OV17R was assessed for sensitivity to ZN-c3 alone, LB-100 alone, or the combination of ZN-c3+LB-100 (FIG. 19).

For the compound `CN1CCN(C(=O)C2C(C(=O)O)[C@H]3CC[C@@H]2O3)CC1` (some centres unmarked) [LB-100, reference compound], the inhibition at 1 µM in assay [1] was 25%; in assay [4] it was around 12%. The “percent inhibition of cell growth” value in assay [2] (HEC-59, siCTRL) is given as “approximately half of that value”; in assay [3], “approximately half of that value”. In addition, the “percent inhibition in siPPP2R1A treated cells compared to siCTRL treated cells” value in assay [2] (HEC-59, siPPP2R1A) is “only slightly enhanced”.
